Molecular target: GLP-1 Receptor (Homo sapiens, UniProt P43220)
Assay: GLP-1R agonist cAMP stimulation assay (HEK293/GLP1R/CRE-LUC cells, cAMP dynamic 2 Kit)
Assay type: cell-based
Conditions: HEK293/CRE-Luc cell line stably expressing the GLP-1 Receptor, 30 min at 37° C.
In short: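 HEK293 cells stably expressing human GLP-1R with CRE-luciferase, 1000 cells/well in DPBS with 0.5 mM IBMX and 0.1% BSA, treated with compound in 1/2-log serial dilution for 30 min at 37 °C. cAMP then detected by HTRF (cAMP-d2 plus anti-cAMP cryptate), 1 h at room temperature in the dark.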

Sequence of GLP-1 Receptor (P43220 24-463, species assumed): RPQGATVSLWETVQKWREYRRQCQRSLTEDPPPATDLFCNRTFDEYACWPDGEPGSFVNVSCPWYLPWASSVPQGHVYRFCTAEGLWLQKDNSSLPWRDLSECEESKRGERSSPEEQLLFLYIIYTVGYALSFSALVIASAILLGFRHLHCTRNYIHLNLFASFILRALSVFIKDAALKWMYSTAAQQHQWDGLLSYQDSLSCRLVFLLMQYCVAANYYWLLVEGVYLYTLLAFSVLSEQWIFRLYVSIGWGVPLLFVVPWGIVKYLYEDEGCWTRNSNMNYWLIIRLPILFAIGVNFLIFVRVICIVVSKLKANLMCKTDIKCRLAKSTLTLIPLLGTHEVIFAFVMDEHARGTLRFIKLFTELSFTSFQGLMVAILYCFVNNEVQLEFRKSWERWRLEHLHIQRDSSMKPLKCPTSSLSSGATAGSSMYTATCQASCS

Row | EC50 [nM] | SMILES
1 | 0.16 | CNC(=O)Nc1ccc2c(c1)nc(CN1CCC(c3cccc(OCc4ccc(Cl)cc4F)n3)CC1)n2C[C@@H]1CCO1 [Compound 145a, 1-{2-[(4-{6-[(4-chloro-2-fluorophenyl)methoxy]pyridin-2-yl}piperidin-1-yl)methyl]-1-{[(2S)-oxetan-2-yl]methyl}-1H-1,3-benzodiazol-5-yl}-3-methylurea]
2 | 9.1 | Cc1ncc(-c2ccc3c(c2)nc(CN2CCC(c4cccc5c4OC(C)(c4ccc(Cl)cc4F)O5)CC2)n3C[C@@H]2CCO2)cn1 (stereo partly drawn) [Compound 237a, 2-((4-(2-(4-chloro-2-fluorophenyl)-2-methylbenzo[d][1,3]dioxol-4-yl)piperidin-1-yl)methyl)-5-(2-methylpyrimidin-5-yl)-1-(((S)-oxetan-2-yl)methyl)-1H-benzo[d]imidazole]
3 | 0.27 | O=C(Nc1ccc2c(c1)nc(CN1CCC(c3cccc(OCc4ccc(Cl)cc4F)n3)CC1)n2C[C@@H]1CCO1)c1ccn2cncc2c1 [Compound 179a, N-{2-[(4-{6-[(4-chloro-2-fluorophenyl)methoxy]pyridin-2-yl}piperidin-1-yl)methyl]-1-{[(2S)-oxetan-2-yl]methyl}-1H-1,3-benzodiazol-5-yl}imidazo[1,5-a]pyridine-7-carboxamide]
4 | 0.029 | N#Cc1ccc(COc2cccc(C3CCN(Cc4nc5cc(-c6nnc(C(F)(F)F)[nH]6)nnc5n4C[C@@H]4CCO4)CC3)n2)c(F)c1 [Compound 487a, 3-fluoro-4-{[(6-{1-[(7-{[(2S)-oxetan-2-yl]methyl}-3-[5-(trifluoromethyl)-4H-1,2,4-triazol-3-yl]-7H-imidazo[4,5-c]pyridazin-6-yl)methyl]piperidin-4-yl}pyridin-2-yl)oxy]methyl}benzonitrile]
5 | 0.054 | Fc1cc(Cl)ccc1COc1nc(C2CCN(Cc3nc4cc(-c5nnc(C(F)(F)F)[nH]5)nnc4n3C[C@@H]3CCO3)CC2)ccc1F [Compound 488a, 2-[(4-chloro-2-fluorophenyl)methoxy]-3-fluoro-6-{1-[(7-{[(2S)-oxetan-2-yl]methyl}-3-[5-(trifluoromethyl)-4H-1,2,4-triazol-3-yl]-7H-imidazo[4,5-c]pyridazin-6-yl)methyl]piperidin-4-yl}pyridine]

The next lines start with the compound.

Row | SMILES | EC50 [nM]
6 | C[C@]1(c2ccc(Cl)cc2F)Oc2cccc(C3CCN(Cc4nc5cc(-c6noc(=O)[nH]6)ncc5n4CC4(C#N)CC4)CC3)c2O1 [Compound 346a, 1-{[2-({4-[(2S)-2-(4-chloro-2-fluorophenyl)-2-methyl-2H-1,3-benzodioxol-4-yl]piperidin-1-yl}methyl)-6-(5-oxo-4,5-dihydro-1,2,4-oxadiazol-3-yl)-3H-imidazo[4,5-c]pyridin-3-yl]methyl}cyclopropane-1-carbonitrile] | 0.015
7 | CC1(c2ccc(C#N)cc2F)Oc2cccc(C3CCN(Cc4nc5cc(-c6nnc(C(F)(F)F)[nH]6)nnc5n4C[C@@H]4CCO4)CC3)c2O1 (stereo partly drawn) [Compound 273a, 3-fluoro-4-(2-methyl-4-{1-[(7-{[(2S)-oxetan-2-yl]methyl}-3-[5-(trifluoromethyl)-4H-1,2,4-triazol-3-yl]-7H-imidazo[4,5-c]pyridazin-6-yl)methyl]piperidin-4-yl}-2H-1,3-benzodioxol-2-yl)benzonitrile] | 0.019
8 | N#Cc1ccc(COc2cc(C3=CCN(Cc4nc5cc(-c6nnc(C(F)(F)F)[nH]6)cnc5n4C[C@@H]4CCO4)CC3)ccc2F)c(F)c1 [Compound 296a, 3-fluoro-4-[(2-fluoro-5-{1-[(3-{[(2S)-oxetan-2-yl]methyl}-6-[5-(trifluoromethyl)-4H-1,2,4-triazol-3-yl]-3H-imidazo[4,5-b]pyridin-2-yl)methyl]-1,2,3,6-tetrahydropyridin-4-yl}phenoxy)methyl]benzonitrile] | 0.48
9 | N#Cc1ccc(COc2cccc(C3=CCN(Cc4nc5cc(-c6nnc(C(F)(F)F)[nH]6)cnc5n4C[C@@H]4CCO4)CC3)n2)c(F)c1 [Compound 321a, 3-fluoro-4-[({1′-[(3-{[(2S)-oxetan-2-yl]methyl}-6-[5-(trifluoromethyl)-4H-1,2,4-triazol-3-yl]-3H-imidazo[4,5-b]pyridin-2-yl)methyl]-1′,2′,3′,6′-tetrahydro-[2,4′-bipyridin]-6-yl}oxy)methyl]benzonitrile] | 0.022
